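Five concentrations, 48 hours, 96-well plates. Abbreviation: GI50, concentration required for 50% inhibition of growth. TGI is the concentration that stops growth completely.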 Where a SMILES comes first, the peptide text is derived from it. The star is where a group is joined. OBn = c1ccc(CO*)cc1
Columns and labels:
Experiment in all cases: growth of human tumour cells (NCI), 48 h
[1] = tested on: M14 melanoma
[2] = tested on: HCT-15 colon
[3] = tested on: UACC-257 melanoma
[4] = tested on: HOP-62 NSCLC
[5] = tested on: NCI/ADR-RES ovarian
[6] = tested on: SK-MEL-5 melanoma
[7] = tested on: A498 renal
[8] = tested on: HS 578T breast
[9] = tested on: MDA-MB-435
[10] = tested on: HT29 colon
[11] = tested on: MDA-N
[12] = tested on: RPMI-8226 leukemia

SMILES | TGI [1] | TGI [2] | TGI [3] | TGI [4] | TGI [5] | TGI [6] | TGI [7] | TGI [8] | TGI [9] | TGI [10] | TGI [11] | TGI [12] | GI50 [1] | GI50 [3] | GI50 [4] | GI50 [5] | GI50 [6] | GI50 [10] | GI50 [9]
COc1ccc2c(c1)/C(=C\c1cccc(/C=C3/C(=O)Nc4ccc(OC)cc43)n1)C(=O)N2 | 3.22 µM | > 25.1 µM | 18.4 µM | 5.07 µM | > 58.8 µM | 2.24 µM | 6.03 µM | > 46.9 µM | 6.81 µM |  |  |  |  |  |  |  |  |  | 
COc1ccc(/C=C/[N+](=O)[O-])cc1 | 6.48 µM | 15.2 µM | 8.09 µM | > 100 µM | > 100 µM | 30.2 µM | 17.3 µM | 36.6 µM | 4.21 µM | 11.2 µM |  |  |  |  |  |  |  |  | 
CC(C)N1CCCOC(c2ccc([N+](=O)[O-])cc2)O1 (stereo unspecified) | > 100 µM | > 100 µM | > 100 µM | > 100 µM | > 100 µM | > 100 µM | > 100 µM |  | > 100 µM | > 100 µM | > 100 µM |  |  |  |  |  |  |  | 
O=C1c2ccccc2C(=O)c2c(O)c(O)cc(O)c21 | > 100 µM | > 100 µM | > 100 µM | 69.9 µM |  | > 100 µM | > 100 µM |  |  |  |  | 70.1 µM |  |  |  |  |  |  | 
C(/C=N/NC1=NCCCN1)=N\NC1=NCCCN1 | > 100 µM |  | > 100 µM | > 100 µM | > 100 µM | > 100 µM |  | > 100 µM | > 100 µM | > 100 µM | > 100 µM |  |  |  |  |  |  |  | 
CC(CCC(=O)O)[C@H]1CCC2[C@H]3C(CC(=O)[C@@]21C)[C@@]1(C)CCC(O)C[C@H]1C[C@@H]3O (stereo partly specified) | > 100 µM | > 100 µM | > 100 µM | > 100 µM | > 100 µM |  | > 100 µM |  | > 100 µM | > 100 µM | > 100 µM | > 100 µM |  |  |  |  |  |  | 
CN1CCN(C(=S)N(C)C(=O)c2cccs2)CC1 | > 100 µM | > 100 µM | > 100 µM |  |  | > 100 µM |  | > 100 µM | > 100 µM | > 100 µM | > 100 µM | > 100 µM |  |  |  |  |  |  | 
COC(=O)/C(=C/CC(N=C(c1ccccc1)c1ccccc1)C(=O)OC)N=C(c1ccccc1)c1ccccc1 (stereo unspecified) | > 100 µM | > 100 µM | > 100 µM | > 100 µM |  | > 100 µM |  |  |  | > 100 µM |  | > 100 µM |  |  |  |  |  |  | 
CCCCc1ccc(N2C(=O)c3cccnc3S2(=O)=O)cc1 | > 100 µM | > 100 µM | > 100 µM | > 100 µM | > 100 µM |  | > 100 µM |  | > 100 µM | > 100 µM | > 100 µM | > 100 µM |  |  |  |  |  |  | 
Nc1ccc(C(=O)NN2C(=O)C(Cl)C2c2ccccc2O)cc1 (stereo unspecified) | > 100 µM | > 100 µM | > 100 µM | > 100 µM |  | > 100 µM |  |  |  | > 100 µM |  | > 100 µM |  |  |  |  |  |  | 
Cc1cc(NCC2CC/C(=C\C=C\c3ccccc3)C2=O)no1 (stereo unspecified) | > 100 µM | > 100 µM | > 100 µM | > 100 µM | > 100 µM | > 100 µM | > 100 µM | > 100 µM | > 100 µM | > 100 µM |  | 88.8 µM |  |  |  |  |  |  | 
Cc1cc2nc3c(C#N)c(-c4ccccc4)cc(Nc4ccc(F)cc4)n3c2cc1C |  | > 100 µM | > 100 µM | 36.6 µM | 71.6 µM | > 100 µM | 93.5 µM |  | > 100 µM | > 100 µM |  | > 100 µM |  |  |  |  |  |  | 
O=C(/C=C/c1cccs1)c1ccc(C(=O)/C=C/c2cccs2)cc1 | > 100 µM | > 100 µM | > 100 µM | > 100 µM | > 100 µM |  | > 100 µM | > 100 µM | > 100 µM | > 100 µM |  |  |  |  |  |  |  |  | 
C=C1CC(COc2ccc3ccc(=O)oc3c2)(c2ccccc2)OC1=O (stereo unspecified) | 2.4 µM | 4.13 µM | 4.05 µM | 26.9 µM | 12.4 µM | 2.85 µM |  | > 23.7 µM | 7.82 µM | 2.27 µM | 3.85 µM | 0.434 µM |  |  |  |  |  |  | 
CN(C)CCN1C(=O)c2ccccc2C1(O)c1ccc(Cl)cc1 (stereo unspecified) | > 100 µM | > 100 µM | 63.9 µM | > 100 µM | > 100 µM | 67.2 µM |  | > 100 µM | > 100 µM | > 100 µM | > 100 µM | > 100 µM |  |  |  |  |  |  | 
O=S1(=O)OCCCOS(=O)(=O)C1Br | > 100 µM | > 100 µM | > 100 µM | > 100 µM | > 100 µM | > 100 µM |  |  | > 100 µM | > 100 µM | > 100 µM | > 100 µM |  |  |  |  |  |  | 
CSc1ccc(-c2cc(-c3nc4ccccc4[nH]3)nc3[nH]c(-c4nc5ccccc5[nH]4)cc(=O)c23)cc1 | > 100 µM | > 100 µM | > 100 µM | > 100 µM | > 100 µM |  |  | > 100 µM | > 100 µM | > 100 µM |  | > 100 µM |  |  |  |  |  |  | 

SMILES | TGI [1] | TGI [2] | TGI [3] | TGI [4] | TGI [5] | TGI [6] | TGI [7] | TGI [8] | TGI [9] | TGI [10] | TGI [11] | TGI [12] | GI50 [1] | GI50 [3] | GI50 [4] | GI50 [5] | GI50 [6] | GI50 [10] | GI50 [9]
CCOC(=O)C1C(c2ccc([N+](=O)[O-])cc2)NC(c2ccc([N+](=O)[O-])cc2)C(C(=O)OC)S1(=O)=O (stereo unspecified) | > 100 µM | > 100 µM | > 100 µM | > 100 µM |  |  |  |  |  | > 100 µM |  | > 100 µM |  |  |  |  |  |  | 
COc1cc(CCCC(O)COc2cccc3c2C2(O)CCCCCC32)cc(OC)c1 (stereo unspecified) | 35.7 µM | 34 µM | 32.5 µM | 28.7 µM |  | 20.5 µM | 34.1 µM |  |  | 23.9 µM |  | 42 µM |  |  |  |  |  |  | 
COc1ccc(C(CC(=O)c2ccccc2)C(=O)c2ccc3c(c2)OCO3)cc1 (stereo unspecified) | > 100 µM | > 100 µM | > 100 µM | > 100 µM | > 100 µM | > 100 µM | > 100 µM |  | > 100 µM |  | > 100 µM | > 100 µM |  |  |  |  |  |  | 
CCOn1cc(C2=C(c3c[nH]c4ccccc34)C(=O)NC2=O)c2ccccc21 | 17.9 µM | 14.8 µM | 20.5 µM | 18.5 µM | < 0.01 µM | < 0.01 µM |  |  | < 0.0142 µM | 12.8 µM |  | 5.28 µM | 0.0542 µM | 0.859 µM | < 0.01 µM | < 0.01 µM | < 0.01 µM | < 0.0224 µM | < 0.01 µM
CC(Oc1ccc(Cl)cc1Cl)C(=O)NN1C(=O)CSC1c1ccc(Cl)cc1 (stereo unspecified) | > 100 µM | > 100 µM | > 100 µM | > 100 µM | > 100 µM | > 100 µM | 80 µM | > 100 µM | > 100 µM | > 100 µM |  | > 100 µM |  |  |  |  |  |  | 
NC(CCC(=O)OCc1ccccc1)C(=O)NC(CCC(=O)OCc1ccccc1)C(=O)O (stereo unspecified) (H-Glu(OBn)-Glu(OBn)-OH; configuration not given here) | > 100 µM | > 100 µM |  | > 100 µM | > 100 µM | > 100 µM |  | > 100 µM | > 100 µM | > 100 µM | > 100 µM | > 100 µM |  |  |  |  |  |  | 
Cc1ccc(S(=O)(=O)n2cnc(CC(NC(=O)C3CCC(=O)N3C(=O)OCc3ccccc3)C(=O)N3CCCC3C(=O)NN)c2)cc1 (stereo unspecified) | > 100 µM | > 100 µM | > 100 µM | > 100 µM |  | > 100 µM | > 100 µM | > 100 µM |  | > 100 µM | > 100 µM | > 100 µM |  |  |  |  |  |  | 
CN(CCO)c1nc2c(c(=O)[nH]1)CNCC2 | > 100 µM | > 100 µM | > 100 µM | > 100 µM |  | > 100 µM |  |  |  | > 100 µM |  | > 100 µM |  |  |  |  |  |  | 
C=C(Cl)C(Br)(CBr)CCC(Br)C(C)(C)Br (stereo unspecified) | > 10 µM |  |  | > 10 µM |  | > 10 µM | > 10 µM |  | > 10 µM | > 10 µM | > 10 µM | 4.96 µM |  |  |  |  |  |  | 
COC(=O)c1cc(C#N)[nH]c1-c1cccs1 | > 100 µM | > 100 µM | > 100 µM | > 100 µM | > 100 µM |  | 86 µM |  | > 100 µM |  | > 100 µM | > 100 µM |  |  |  |  |  |  | 
N#CC1=C(N)Nc2nc3ccccc3n2C1c1ccccc1 (stereo unspecified) | > 100 µM | > 100 µM | > 100 µM | > 100 µM | > 100 µM | > 100 µM | 96.1 µM | > 100 µM | > 100 µM | > 100 µM |  | 31 µM |  |  |  |  |  |  | 
O=C(Nc1ccccc1)C(=O)C(C(=O)c1ccccc1)C(c1ccccc1)c1ccccc1 (stereo unspecified) | > 10 µM | > 10 µM | > 10 µM | > 10 µM |  | > 10 µM |  |  | > 10 µM | > 10 µM | > 10 µM | > 10 µM |  |  |  |  |  |  | 
N=C(N)C1CN(CC=O)C(=O)NC1=O (stereo unspecified) | > 100 µM | > 100 µM | > 100 µM | > 100 µM | > 100 µM | > 100 µM | > 100 µM |  | > 100 µM | > 100 µM | > 100 µM | > 100 µM |  |  |  |  |  |  | 
O=C1/C(=C/c2ccccc2)CCCC/C1=C\c1ccccc1 | > 100 µM | > 100 µM | > 100 µM | > 100 µM |  | 70.4 µM | > 100 µM |  |  | 32 µM |  |  |  |  |  |  |  |  | 
CO[C@H](c1ccccc1)[C@H](O)[C@](O)(c1ccccc1)P(=O)(OC)OC | > 100 µM | > 100 µM | > 100 µM |  | > 100 µM | > 100 µM | > 100 µM |  | > 100 µM | > 100 µM | > 100 µM | > 100 µM |  |  |  |  |  |  | 
CC1=[N+]([O-])C(C)(C)N(O)C1(C)C | > 100 µM | > 100 µM |  | > 100 µM | > 100 µM | > 100 µM | > 100 µM |  | > 100 µM | > 100 µM | > 100 µM | > 100 µM |  |  |  |  |  |  | 

Source: PubChem BioAssay (NCI)
